Test results taken from patent US10494376B2, “Tetrahydroisoquinoline derived PRMT5-inhibitors” (CTXT PTY LTD, priority 2014, dated 2019).
Counter-ions that a name gives are not always drawn. Like-named read-outs stand apart in the source and are kept apart here.

How the values were obtained:
[1] = biological target: Full-length PRMT5 enzyme (NCBI Reference sequence NP_006100.2) co-expressed with His6-MEP50 (Homo sapiens (Human), UniProt O14744); test: Revised PRMT5 Biochemical Assay; conditions: 1 μM peptide substrate, 1 μM S-Adenosyl methionine, 4 hours at 37 degree Celsius, Transcreener EPIGEN fluorescence polarisation
In short: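 Full-length PRMT5 co-expressed with His6-MEP50 in insect cells (15 ng/reaction) was run with 1 μM H4-derived peptide and 1 μM SAM in PBS, 0.01% Tween-20, 0.01% albumin and 1 mM DTT for 4 h at 37 °C. Product was read by Transcreener EPIGEN fluorescence polarisation, and IC50 came from a 4-parameter fit.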

[2] = tested on: symmetrical dimethylation of arginine (Di-Methyl Histone H4 Arginine 3) in cell line TE11; test: Revised PRMT5 Biomarker Assay (Di-Methyl Histone H4 Arginine 3 immunofluorescence); format: cell-based; conditions: TE11 cells, 72 hours
Method: Compounds of the invention may be tested for potency to inhibit symmetrical dimethylation of arginine in the following assay:
The cell line TE11 was seeded at a density of 6,000 cells per well in 96 well optical quality tissue culture plates in DME medium and 10% foetal bovine serum, and allowed to adhere for 5 hours under standard culture conditions (37 degree Celsius, 5% CO2). […] After incubation for 72 hours, the cells were fixed with 3.7% formaldehyde in PBS for 30 minutes at room temperature, washed with phosphate buffer saline and blocked with Odyssey blocking buffer (LI-COR, Lincoln, Nebr.). Rabbit anti-Di-Methyl Histone H4 Arginine 3 specific antibody (Epigentek) in Odyssey blocking buffer was added and incubated for 14 hours at 4 degree Celsius. […] Alternatively, the plates were imaged on a PerkinElmer Phenix high content imaging platform. […] The resulting mean intensity per cell was directly converted to percent inhibition as outlined above (IC50, imager based).

[3] = Homo sapiens, TE-11, PerkinElmer Phenix high content imaging, mean intensity per cell, read-out: IC50 - image based
[4] = Homo sapiens, TE-11, PerkinElmer Envision fluorescence intensity, corrected for Hoechst 33342, read-out: IC50 - plate-reader based

Chain of Full-length PRMT5 enzyme (NCBI Reference sequence NP_006100.2) co-expressed with His6-MEP50 (O14744 whole entry): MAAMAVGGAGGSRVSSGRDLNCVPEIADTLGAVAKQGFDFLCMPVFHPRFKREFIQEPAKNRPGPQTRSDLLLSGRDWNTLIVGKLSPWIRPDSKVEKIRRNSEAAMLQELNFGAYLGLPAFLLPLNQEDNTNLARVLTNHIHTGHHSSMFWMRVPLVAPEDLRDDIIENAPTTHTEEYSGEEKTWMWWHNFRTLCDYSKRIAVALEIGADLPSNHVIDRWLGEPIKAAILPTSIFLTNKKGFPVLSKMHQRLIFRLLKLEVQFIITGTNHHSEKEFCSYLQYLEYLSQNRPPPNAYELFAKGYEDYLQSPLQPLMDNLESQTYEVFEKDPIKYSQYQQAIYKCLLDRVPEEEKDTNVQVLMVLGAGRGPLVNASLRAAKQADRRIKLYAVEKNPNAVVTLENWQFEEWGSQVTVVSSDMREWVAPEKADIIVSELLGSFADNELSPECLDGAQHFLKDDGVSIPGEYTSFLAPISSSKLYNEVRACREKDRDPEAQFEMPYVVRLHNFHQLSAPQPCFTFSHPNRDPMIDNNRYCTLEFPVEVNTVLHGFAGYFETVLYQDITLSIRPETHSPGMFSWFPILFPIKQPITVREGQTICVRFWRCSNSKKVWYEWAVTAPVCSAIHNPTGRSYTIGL
Chain of Full-length PRMT5 enzyme (NCBI Reference sequence NP_006100.2) co-expressed with His6-MEP50 (Q9BQA1 whole entry partner): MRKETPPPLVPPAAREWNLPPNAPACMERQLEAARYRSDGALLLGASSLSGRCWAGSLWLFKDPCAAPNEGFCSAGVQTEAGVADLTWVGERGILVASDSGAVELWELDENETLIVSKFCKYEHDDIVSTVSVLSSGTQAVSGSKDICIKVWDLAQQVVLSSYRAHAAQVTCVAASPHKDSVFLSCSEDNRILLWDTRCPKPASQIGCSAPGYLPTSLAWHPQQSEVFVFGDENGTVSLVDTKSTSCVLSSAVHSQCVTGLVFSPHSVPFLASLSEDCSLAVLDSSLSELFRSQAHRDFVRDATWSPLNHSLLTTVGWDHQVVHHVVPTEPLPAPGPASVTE

SMILES	IC50 [1]	IC50 [2, 3]	IC50 [2, 4]	IC50 ([2]; PerkinElmer Phenix high content imaging, mean intensity per cell, read-out: IC50 - image based)
O=C(NC[C@@H](O)[C@@H]1Cc2ccccc2CN1)c1ccnc(OC2CCOC2)c1 (stereo partly drawn) [Example 104, N—((R)-2-Hydroxy-2-((S)-1,2,3,4-tetrahydroisoquinolin-3-yl)ethyl)-2-((tetrahydrofuran-3-yl)oxy)isonicotinamide bis(2,2,2-trifluoroacetate)]	147 nM	12 nM		
CCOc1c(C(=O)NC[C@@H](O)[C@@H]2Cc3ccccc3CN2)ccc(C(=O)N2CCOCC2)c1C [Example 80, 2-Ethoxy-N-((R)-2-hydroxy-2-((S)-1,2,3,4-tetrahydroisoquinolin-3-yl)ethyl)-3-methyl-4-(morpholine-4-carbonyl)benzamide hydrochloride]	161 nM		3 nM	
O=C(NC[C@@H](O)[C@@H]1Cc2ccccc2CN1)c1ccc(C(=O)N2CCS(=O)(=O)CC2)cc1 [Example 37, 4-(1,1-Dioxidothiomorpholine-4-carbonyl)-N-((R)-2-hydroxy-2-((S)-1,2,3,4-tetrahydroisoquinolin-3-yl)ethyl)benzamide]	105 nM		254 nM	
O=C(NC[C@@H](O)[C@@H]1Cc2ccccc2CN1)c1ccc(N2CCOCC2)nc1 [Example 101, N—((R)-2-Hydroxy-2-((S)-1,2,3,4-tetrahydroisoquinolin-3-yl)ethyl)-6-morpholinonicotinamide]	104 nM	10 nM		
COC(=O)N1CCC(Oc2ccc(C(=O)NC[C@@H](O)[C@@H]3Cc4ccccc4CN3)cn2)CC1 [Example 100, Methyl 4-((5-(((R)-2-hydroxy-2-((S)-1,2,3,4-tetrahydroisoquinolin-3-yl)ethyl)carbamoyl)pyridin-2-yl)oxy)piperidine-1-carboxylate]	66 nM	11 nM		
O=C(NC[C@@H](O)[C@@H]1Cc2ccccc2CN1)c1ccc(C(=O)N2C3CCC2COC3)cc1F [Example 81, 4-(3-Oxa-8-azabicyclo[3.2.1]octane-8-carbonyl)-2-fluoro-N-((R)-2-hydroxy-2-((S)-1,2,3,4-tetrahydroisoquinolin-3-yl)ethyl)benzamide hydrochloride]	51 nM		3 nM	
CC(=O)N1CCC(Nc2cc(C(=O)NC[C@@H](O)[C@@H]3Cc4ccccc4CN3)ncn2)CC1 [Example 51, 6-((1-Acetylpiperidin-4-yl)amino)-N—((R)-2-hydroxy-2-((S)-1,2,3,4-tetrahydroisoquinolin-3-yl)ethyl)pyrimidine-4-carboxamide dichloride]	61 nM		15 nM	
O=C(NC[C@@H](O)[C@@H]1Cc2ccccc2CN1)c1ccccc1 [Example 3, N-((R)-2-Hydroxy-2-((S)-1,2,3,4-tetrahydroisoquinolin-3-yl)ethyl)benzamide]	8360 nM		1460 nM	
O=C(NC[C@@H](O)[C@@H]1Cc2ccccc2CN1)c1ccc2nc(C(F)(F)F)[nH]c2c1 [Example 84, N-((R)-2-Hydroxy-2-((S)-1,2,3,4-tetrahydroisoquinolin-3-yl)ethyl)-2-(trifluoromethyl)-1H-benzo[d]imidazole-6-carboxamide dihydrochloride]	124 nM		81 nM	
CCOc1cc(CC(=O)N2C3CCC2COC3)ccc1C(=O)NC[C@@H](O)[C@@H]1Cc2ccccc2CN1 [Example 74]	338 nM		5 nM	
O=C(NC[C@@H](O)[C@@H]1Cc2ccccc2CN1)c1ccc(C(=O)N2C3CCC2COC3)cc1C(F)F [Example 106, 4-(3-Oxa-8-azabicyclo[3.2.1]octane-8-carbonyl)-2-(difluoromethyl)-N—((R)-2-hydroxy-2-((S)-1,2,3,4-tetrahydroisoquinolin-3-yl)ethyl)benzamide]	212 nM	5 nM		
O=C(NC[C@@H](O)[C@@H]1Cc2ccccc2CN1)c1ccc(C(=O)N2CCOCC2)cc1 [Example 28, N-((R)-2-Hydroxy-2-((S)-1,2,3,4-tetrahydroisoquinolin-3-yl)ethyl)-4-(morpholine-4-carbonyl)benzamide hydrochloride]	180 nM		12 nM	
CCOc1cc(CC(=O)N2CCCC2)ccc1C(=O)NC[C@@H](O)[C@@H]1Cc2ccccc2CN1 [Example 79, 2-Ethoxy-N-((R)-2-hydroxy-2-((S)-1,2,3,4-tetrahydroisoquinolin-3-yl)ethyl)-4-(2-oxo-2-(pyrrolidin-1-yl)ethyl)benzamide hydrochloride]	168 nM	3 nM		
CCOc1cc(C(=O)N2C3CCC2COC3)ccc1C(=O)NC[C@@H](O)[C@@H]1Cc2ccccc2CN1 [Example 50, 4-(3-Oxa-8-azabicyclo[3.2.1]octane-8-carbonyl)-2-ethoxy-N—((R)-2-hydroxy-2-((S)-1,2,3,4-tetrahydroisoquinolin-3-yl)ethyl)benzamide hydrochloride]	19 nM	0.3 nM	0.3 nM	
CCOc1cc(C(=O)N2C3CCCC2COC3)ccc1C(=O)NC[C@@H](O)[C@@H]1Cc2ccccc2CN1 [Example 55, 4-(3-Oxa-9-azabicyclo[3.3.1]nonane-9-carbonyl)-2-ethoxy-N—((R)-2-hydroxy-2-((S)-1,2,3,4-tetrahydroisoquinolin-3-yl)ethyl)benzamide]	16 nM	0.2 nM	0.4 nM	
CCOc1cc(C(=O)N2C3CCC2COC3)ccc1C(=O)NC[C@@H](O)[C@@H]1Cc2ccc(C)cc2CN1 [Example 108, 4-(3-Oxa-8-azabicyclo[3.2.1]octane-8-carbonyl)-2-ethoxy-N—((R)-2-hydroxy-2-((S)-7-methyl-1,2,3,4-tetrahydroisoquinolin-3-yl)ethyl)benzamide]	17 nM		1 nM	
O=C(NC[C@@H](O)[C@@H]1Cc2ccccc2CN1)c1ccc(C(=O)N2CCOCC2)cc1F [Example 15, 2-Fluoro-N-((R)-2-hydroxy-2-((S)-1,2,3,4-tetrahydroisoquinolin-3-yl)ethyl)-4-(morpholine-4-carbonyl)benzamide]	383 nM		23 nM	
O=C(NC[C@@H](O)[C@@H]1Cc2ccccc2CN1)c1ccc(C(=O)N2C3CCC2COC3)cc1Cl [Example 83, 4-(3-Oxa-8-azabicyclo[3.2.1]octane-8-carbonyl)-2-chloro-N-((R)-2-hydroxy-2-((S)-1,2,3,4-tetrahydroisoquinolin-3-yl)ethyl)benzamide]	65 nM		4 nM	
O=C(NC[C@@H](O)[C@@H]1Cc2ccccc2CN1)c1ccnc(OC2CCNCC2)c1 [Example 21, N-((R)-2-Hydroxy-2-((S)-1,2,3,4-tetrahydroisoquinolin-3-yl)ethyl)-2-(piperidin-4-yloxy)isonicotinamide]	70 nM		87 nM	
CC(=O)N1CCC(Oc2cc(C(=O)NC[C@@H](O)[C@@H]3Cc4ccccc4CN3)ccn2)CC1 [Example 102, 2-((1-Acetylpiperidin-4-yl)oxy)-N—((R)-2-hydroxy-2-((S)-1,2,3,4-tetrahydroisoquinolin-3-yl)ethyl)isonicotinamide]	68 nM		5 nM	
COC(=O)N1CCC(Oc2cc(C(=O)NC[C@@H](O)[C@@H]3Cc4ccccc4CN3)ccn2)CC1 [Example 27, Methyl 4-((4-(((R)-2-hydroxy-2-((S)-1,2,3,4-tetrahydroisoquinolin-3-yl)ethyl)carbamoyl)pyridin-2-yl)oxy)piperidine-1-carboxylate bis(2,2,2-trifluoroacetic acid) salt]	44 nM		7 nM	
CCOc1cc(C(=O)N2C3CCC2COC3)c(F)cc1C(=O)NC[C@@H](O)[C@@H]1Cc2ccccc2CN1 [Example 69]	1300 nM		3 nM	
CCOc1cc(C(=O)N2C3CCC2COC3)ncc1C(=O)NC[C@@H](O)[C@@H]1Cc2ccccc2CN1 [Example 82, 6-(3-Oxa-8-azabicyclo[3.2.1]octane-8-carbonyl)-4-ethoxy-N-((R)-2-hydroxy-2-((S)-1,2,3,4-tetrahydroisoquinolin-3-yl)ethyl)nicotinamide dihydrochloride]	106 nM	8 nM		
COC(=O)N1[C@@H]2CC[C@H]1C[C@@H](Oc1cc(C(=O)NC[C@@H](O)[C@@H]3Cc4ccccc4CN3)ccn1)C2 [Example 105, Methyl (1R,3r,5S)-3-((4-(((R)-2-hydroxy-2-((S)-1,2,3,4-tetrahydroisoquinolin-3-yl)ethyl)carbamoyl)pyridin-2-yl)oxy)-8-azabicyclo[3.2.1]octane-8-carboxylate]	38 nM			1 nM
O=C(NC[C@@H](O)[C@@H]1Cc2ccccc2CN1)c1ccnc(OC2CCOCC2)c1 [Example 26, N-((R)-2-Hydroxy-2-((S)-1,2,3,4-tetrahydroisoquinolin-3-yl)ethyl)-2-((tetrahydro-2H-pyran-4-yl)oxy)isonicotinamide bis(2,2,2-trifluoroacetic acid) salt]	53 nM	3 nM	15 nM	
